# Test results: patent US10611766B2, “Pyrazolopyrimidine derivatives as BTK inhibitors for the treatment of cancer” (Loxo Oncology, Inc., priority 2015, dated 2020)
# Test system: OCI-Ly10 human DLBCL cells
# Test: OCI-Ly10 anti-proliferative activity (Resazurin, 72 h)
# Format: cell-based
# Conditions: read-out: Proliferation OCI-Ly10-IC50
# Procedure: Compounds were assayed for effects on the growth of OCI-Ly10 human DLBCL cells that are dependent on NFκB signalling. OCI-Ly10 cells were grown in suspension in T225 flasks, centrifuged and re-suspended in 2.5% FBS containing media. Cells were then plated at 7.5×10^3 cells per well in 96-well plates in varying concentrations of compound and incubated for 72 h at 37° C. An additional plate of cells to be used as the Day 0 read was seeded without compound addition, Resazurin was added to each well, incubated for 5 h and the fluorescence measured at 590 nm. After 72 h of compound treatment, Resazurin was added to each well of the compound treated plates, incubated for 5 h and the fluorescence measured at 590 nm. The IC50 was then calculated by subtracting the average Day 0 value from each well value from the treated plates, each treatment was then calculated as a percentage of the DMSO control and the percentages plotted against the inhibitor concentration to estimate the IC50 from log [Inhibitor] vs response using the Variable Slope model in Graphpad prism from Graphpad software (SanDiego, Calif.).
smiles,measurement,value
"COc1ccccc1C(=O)NCc1ccc(-c2nn(C3CCC(C(=O)N(C)C)CC3)c3ncnc(N)c23)cc1 (single isomer, unassigned; isomer 1) [33-isomer 1]",IC50,10 to 100 nM
